Laboratory results reported in PMC12494099, “Discovery and Characterization of Novel IKZF1/3 Glue Degraders against Multiple Hematological Cancer Cell Lines” (Oncology Research, 2025).

Columns and labels:
Type in all cases: cell-based
MV-4-11 [1] = test: Cell viability (CCK-8) assay; settings: Homo sapiens, 96 h, CCK-8
Description: (§1) The plated at a density of 15,000 cells per well, and each well contained 100 µL of medium. Subsequently, different compounds (MGD-AX, MGD-BX, MGD-CX) were added to each well. […] To evaluate the antiproliferative effects of these compounds, the Cell Counting Kit-8 (CCK-8, #CX007, Epizyme, Shanghai, China) was used. All procedures were carried out in strict accordance with the manufacturer’s instructions (Dojindo Laboratories, Mamoto Ken, Japan).

NCI-H929 = test: Cell viability (CCK-8) assay; settings: Homo sapiens, NCI-H929, 96 h
Description: as §1

Ocl-Ly3 = test: Cell viability (CCK-8) assay; settings: 96 h, CCK-8
Description: as §1

[2] = system: NCI-H929 (MM), MV-4-11(AML), and Ocl-Ly3 (DLBCL) cells; test: Cell viability (CCK-8) assay, statements on the whole three-line panel; settings: for antiproliferative activity (in words): compared with the prototypical IMiDs
Description: Multiple cell lines (NCI-H929, OPM-2, U937, Ocl-Ly3, RPMI-8226, MOLM-13, Skm-1, MUTZ-1, SU-DHL-4, TMD8, U2932, WSU-DLCL-2, MV-4-11 and KG-1 cells) were plated into 96-well plates. The plated at a density of 15,000 cells per well, and each well contained 100 µL of medium. Subsequently, different compounds (MGD-AX, MGD-BX, MGD-CX) were added to each well. These compounds’ concentrations were set at 0, 0.01, 0.033, 0.1, 0.33, 1, 3.3, 10 and 33 μM, and the cells were incubated with the compounds for 96 h. To evaluate the antiproliferative effects of these compounds, the Cell Counting Kit-8 (CCK-8, #CX007, Epizyme, Shanghai, China) was used. All procedures were carried out in strict accordance with the manufacturer’s instructions (Dojindo Laboratories, Mamoto Ken, Japan). The half maximal inhibitory concentrations (IC50) values, which represent the concentrations of the test compounds that can inhibit 50% of cell activity, were calculated using GraphPad Prism 8.0 (GraphPad Software Inc., San Diego, CA, USA).

KG-1 = test: Cell viability (CCK-8) assay; settings: Homo sapiens, KG-1, 96 h, read-out: IC50 (μM) KG-1
Description: as §1

MOLM-13 = test: Cell viability (CCK-8) assay; settings: Homo sapiens, MOLM-13, 96 h, read-out: IC50 (μM) MOLM-13
Description: as §1

MUTZ-1 = test: Cell viability (CCK-8) assay; settings: 96 h, read-out: IC50 (μM) MUTZ-1
Description: as §1

OPM-2 = test: Cell viability (CCK-8) assay; settings: Homo sapiens, OPM-2, 96 h, read-out: IC50 (μM) OPM-2
Description: as §1

RPMI-8226 = test: Cell viability (CCK-8) assay; settings: Homo sapiens, RPMI-8226, 96 h, read-out: IC50 (μM) RPMI-8226
Description: as §1

SU-DHL-4 = test: Cell viability (CCK-8) assay; settings: Homo sapiens, SU-DHL-4, 96 h, read-out: IC50 (μM) SU-DHL-4
Description: as §1

Skm-1 = test: Cell viability (CCK-8) assay; settings: Homo sapiens, SKM-1, 96 h, read-out: IC50 (μM) Skm-1
Description: as §1

TMD8 = test: Cell viability (CCK-8) assay; settings: Homo sapiens, TMD8, 96 h, read-out: IC50 (μM) TMD8
Description: as §1

U2932 = test: Cell viability (CCK-8) assay; settings: Homo sapiens, U2932, 96 h, read-out: IC50 (μM) U2932
Description: as §1

U937 = test: Cell viability (CCK-8) assay; settings: Homo sapiens, U-937, 96 h, read-out: IC50 (μM) U937
Description: as §1

WSU-DLCL-2 = test: Cell viability (CCK-8) assay; settings: Homo sapiens, WSUDLCL2, 96 h, read-out: IC50 (μM) WSU-DLCL-2
Description: as §1

IKZF1-HiBiT = biological target: T1, IKZF1-HiBiT (Homo sapiens, UniProt Q13422+Q96SW2); test: Quantitative degradation assay using the HiBiT system (HEK293T); settings: HEK-293T; HEK293T IKZF1-HiBiT, 24 h; read-out: maximal degradation (Dmax) on IKZF1
T1 construct: expressed in transfected cells; host or cells: HEK293T
T1 sequence (Q13422 whole entry): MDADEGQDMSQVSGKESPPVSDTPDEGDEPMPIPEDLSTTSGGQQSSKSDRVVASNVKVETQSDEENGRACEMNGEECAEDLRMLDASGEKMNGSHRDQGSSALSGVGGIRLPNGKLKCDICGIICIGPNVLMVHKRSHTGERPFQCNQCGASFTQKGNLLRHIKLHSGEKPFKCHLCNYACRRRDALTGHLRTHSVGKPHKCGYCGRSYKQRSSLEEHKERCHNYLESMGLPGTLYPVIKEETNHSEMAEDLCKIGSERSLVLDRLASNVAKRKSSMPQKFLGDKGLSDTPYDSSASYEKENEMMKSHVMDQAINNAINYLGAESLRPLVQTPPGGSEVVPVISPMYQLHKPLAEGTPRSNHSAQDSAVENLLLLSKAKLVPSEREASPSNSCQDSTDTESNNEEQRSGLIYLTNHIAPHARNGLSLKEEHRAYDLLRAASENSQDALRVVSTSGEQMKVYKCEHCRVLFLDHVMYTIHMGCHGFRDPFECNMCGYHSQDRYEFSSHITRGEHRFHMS
T1 sequence (Q96SW2 whole entry): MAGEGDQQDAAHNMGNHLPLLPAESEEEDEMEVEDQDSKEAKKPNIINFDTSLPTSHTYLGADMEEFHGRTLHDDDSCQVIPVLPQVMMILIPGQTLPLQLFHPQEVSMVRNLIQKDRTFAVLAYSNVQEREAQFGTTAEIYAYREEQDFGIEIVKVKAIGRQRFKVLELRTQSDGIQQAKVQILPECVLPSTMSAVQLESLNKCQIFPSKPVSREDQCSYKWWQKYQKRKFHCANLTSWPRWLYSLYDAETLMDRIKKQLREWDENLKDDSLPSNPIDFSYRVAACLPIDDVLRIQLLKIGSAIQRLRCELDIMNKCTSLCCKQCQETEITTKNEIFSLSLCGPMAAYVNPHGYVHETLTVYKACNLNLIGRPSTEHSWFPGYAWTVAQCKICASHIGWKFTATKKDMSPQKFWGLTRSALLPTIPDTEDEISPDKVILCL
T1 sequence (Q16531 whole entry partner): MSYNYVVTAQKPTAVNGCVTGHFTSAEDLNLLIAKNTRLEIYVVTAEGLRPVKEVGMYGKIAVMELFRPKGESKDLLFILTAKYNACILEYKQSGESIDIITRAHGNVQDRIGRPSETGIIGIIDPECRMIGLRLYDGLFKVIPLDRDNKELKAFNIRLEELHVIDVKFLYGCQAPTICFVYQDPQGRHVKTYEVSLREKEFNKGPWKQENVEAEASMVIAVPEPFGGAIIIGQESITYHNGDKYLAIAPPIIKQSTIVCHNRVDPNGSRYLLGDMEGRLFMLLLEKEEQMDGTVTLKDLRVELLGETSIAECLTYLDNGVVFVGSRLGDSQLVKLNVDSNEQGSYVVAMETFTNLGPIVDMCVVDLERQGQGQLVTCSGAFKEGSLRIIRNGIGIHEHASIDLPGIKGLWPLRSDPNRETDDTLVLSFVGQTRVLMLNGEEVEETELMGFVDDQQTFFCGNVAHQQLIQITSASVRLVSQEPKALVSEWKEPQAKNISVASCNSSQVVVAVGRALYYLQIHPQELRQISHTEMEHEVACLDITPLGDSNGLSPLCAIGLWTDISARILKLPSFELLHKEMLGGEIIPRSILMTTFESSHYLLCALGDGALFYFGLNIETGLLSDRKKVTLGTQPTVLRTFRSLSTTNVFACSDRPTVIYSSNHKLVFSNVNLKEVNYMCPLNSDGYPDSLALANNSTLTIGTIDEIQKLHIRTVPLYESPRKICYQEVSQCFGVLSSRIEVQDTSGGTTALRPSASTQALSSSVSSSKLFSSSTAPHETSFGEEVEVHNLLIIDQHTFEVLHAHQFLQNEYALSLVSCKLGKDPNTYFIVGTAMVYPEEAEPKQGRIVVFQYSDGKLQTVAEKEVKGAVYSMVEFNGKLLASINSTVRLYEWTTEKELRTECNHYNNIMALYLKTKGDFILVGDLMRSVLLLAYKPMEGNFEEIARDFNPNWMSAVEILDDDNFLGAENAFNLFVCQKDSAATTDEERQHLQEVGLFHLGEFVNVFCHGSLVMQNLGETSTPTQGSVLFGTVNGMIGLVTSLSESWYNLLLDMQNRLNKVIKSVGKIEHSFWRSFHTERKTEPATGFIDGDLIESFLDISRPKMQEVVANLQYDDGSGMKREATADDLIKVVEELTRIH
Description: (§2) An in vitro quantitative degradation assay utilizing the HiBiT system was carried out as previously described. To evaluate the degradation of IKZF1, IKZF2, and IKZF3 proteins, HEK293T cell lines stably expressing IKZF1-, IKZF2-, IKZF3-, GSPT1- or CK1α-HiBiT were cultured in 96-well plates at 12,000 cells per well. […] After the treatment, cell lysis was carried out using the Nano-Glo HiBiT Lytic Detection System (#N3040, Promega). All lysis operations were strictly carried out according to the manufacturer’s specific protocol. Then, the SpectraMax iD3 instrument (Molecular Devices, San Jose, CA, USA) was used to detect the luminescent signals released by the HiBiT-tagged neosubstrates.

IKZF3-HiBiT = biological target: T2, IKZF3-HiBiT (Homo sapiens, UniProt Q96SW2+Q9UKT9); test: as above; settings: HEK-293T; HEK293T IKZF3-HiBiT, 24 h; read-out: maximal degradation (Dmax) on IKZF3
T2 construct: expressed in transfected cells; host or cells: HEK293T
T2 sequence (Q9UKT9 whole entry): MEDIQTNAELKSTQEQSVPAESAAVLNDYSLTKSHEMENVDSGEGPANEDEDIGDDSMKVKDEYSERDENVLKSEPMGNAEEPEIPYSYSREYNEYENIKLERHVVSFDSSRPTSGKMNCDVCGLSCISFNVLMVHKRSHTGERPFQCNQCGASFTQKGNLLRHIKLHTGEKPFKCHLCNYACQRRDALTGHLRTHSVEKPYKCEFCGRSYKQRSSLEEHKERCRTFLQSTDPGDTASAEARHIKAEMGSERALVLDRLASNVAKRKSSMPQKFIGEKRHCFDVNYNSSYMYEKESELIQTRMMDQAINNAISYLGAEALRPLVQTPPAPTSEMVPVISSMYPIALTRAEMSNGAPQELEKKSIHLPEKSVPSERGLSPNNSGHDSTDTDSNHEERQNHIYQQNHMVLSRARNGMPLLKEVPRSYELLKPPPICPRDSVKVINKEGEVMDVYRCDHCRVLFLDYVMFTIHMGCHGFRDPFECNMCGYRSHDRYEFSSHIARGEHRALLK
T2 sequence (Q96SW2 whole entry): as the sequence (Q96SW2 whole entry) above
T2 sequence (Q16531 whole entry partner): as the sequence (Q16531 whole entry partner) above
Description: as §2

MV-4-11 [3] = test: Cell apoptosis assay (Annexin V flow cytometry); settings: MV-4-11, 10 µM
Description: (§3) Cells (NCI-H929 and MV-4-11) were seeded at a density of 1 × 10^6 cells per well into 6-well dishes. […] Apoptosis was assessed using an Annexin V-FITC kit (#ab14085; Abcam, MA, USA) on a FACS Calibur Flow Cytometer (Becton Dickinson, Franklin Lakes, NJ, USA). For cell cycle analysis, cells were fixed in 75% ethanol (−20°C/overnight), washed with PBS (pH = 7.2–7.4, 1×), treated with RNase A (0.2 mg/mL, 37°C/30 min), stained with PI (10 μg/mL), and analyzed on the same instrument. Finally, the samples were analyzed using a FACS Calibur Flow Cytometer.

[4] = system: control vector NCI-H929 cells; test: Cell apoptosis assay, control vector cells
Description: […] NCI-H929 and MV-4-11 cells were seeded at a density of 1 × 10^6 cells/well in 6-well tissue culture-treated plates. According to the manufacturer’s protocol (Santa Cruz Biotechnology, Inc, Dallas, TX, USA), CRBN CRISPR/Cas9 knockout Plasmid (#sc-412142), CRBN HDR plasmid (#sc-412142-HDR), UltraCruz® Transfection Reagent (#sc-395739) were pre-mixed in Plasmid Transfection Medium (#sc-108062) at a 1:1:2 mass ratio, and cells were transiently transfected in a 37°C, 5% CO2 incubator. After 72 h of infection, the medium was replaced with complete medium containing 3 μg/mL puromycin for 5–7 days. On day 7, GFP-positive cells were sorted as single cells into 96-well plates. Isolated single-cell clones were screened via western blot analysis, using wild-type NCI-H929 or MV-4-11 cells as positive controls.
as §3

Row | Structure (SMILES) | IC50 (MV-4-11 [1]; MV4-11, 96 h) | IC50 (NCI-H929) | IC50 (Ocl-Ly3) | antiproliferative activity (in words) [2] | also measured
1 | CC1CCN(C(=O)c2cccc(C(=O)NC3CCC(=O)NC3=O)c2)CC1 (stereo not shown) [MGD-A12, N-(2,6-dioxopiperidin-3-yl)-3-(4-methylpiperidine-1-carbonyl)benzamide] | 14.3 ± 1.36 µM | 11.9 ± 1.14 µM | 15.3 ± 1.46 µM | – | fold reduction in potency compared with MGD-A5 ([2]; NCI-H929, MV-4-11 and Ocl-Ly3 cells): more than 3 fold
2 | O=C1CCC(NC(=O)c2cccc(C(=O)N3CCOCC3)c2)C(=O)N1 (stereo not shown) [MGD-A14, N-(2,6-dioxopiperidin-3-yl)-3-(morpholine-4-carbonyl)benzamide] | 5.1 ± 0.49 µM | 7.43 ± 0.71 µM | 10.6 ± 1.01 µM | mild activity | –
3 | Nc1cccc2c1C(=O)N(C1CCC(=O)NC1=O)C2=O (stereo not shown) [Pomalidomide, reference compound] | – | 2.18 ± 0.21 µM | 18.3 ± 1.74 µM | – | IC50 (KG-1): 17.2 µM; IC50 (MOLM-13): 12.4 µM; IC50 (MUTZ-1): 17.3 µM; IC50 (MV-4-11 [1]; MV4-11): 16.1 ± 1.54 µM; IC50 (OPM-2): 0.204 µM; IC50 (RPMI-8226): 5.21 µM; IC50 (SU-DHL-4): 22.4 µM; IC50 (Skm-1): 20.1 µM; IC50 (TMD8): 15.3 µM; IC50 (U2932): 13.7 µM; IC50 (U937): 13.8 µM; IC50 (WSU-DLCL-2): 18.1 µM; Dmax (IKZF1-HiBiT): 76.2%; Dmax (IKZF3-HiBiT): 69.4%; apoptosis rate (MV-4-11 [3]): 15.5%; apoptosis (in words) [4]: induced significant apoptosis

Second part, led by results:

Row | IC50 (MV-4-11 [1]; MV4-11, 96 h) | IC50 (NCI-H929) | Structure (SMILES) | IC50 (Ocl-Ly3) | antiproliferative activity (in words) [2] | also measured
4 | 8.34 ± 0.79 µM | 14.2 ± 1.36 µM | O=C1CCC(NC(=O)c2cccc(C(=O)N3CCCC3)c2)C(=O)N1 (stereo not shown) [MGD-A10, N-(2,6-dioxopiperidin-3-yl)-3-(pyrrolidine-1-carbonyl)benzamide] | > 33 µM | mild activity | –
5 | 5.47 ± 0.52 µM | 8.33 ± 0.8 µM | O=C1CCC(NC(=O)c2cccc(C(=O)N3CCCCC3)c2)C(=O)N1 (stereo not shown) [MGD-A11, N-(2,6-dioxopiperidin-3-yl)-3-(piperidine-1-carbonyl)benzamide] | 23 ± 2.19 µM | mild activity | –
